What was measured:
Assay in all cases: NCI one-dose SRB anti-proliferative screen
Format in all cases: cell-based
[1] = system: 786-0; conditions: Homo sapiens; 786-0, Renal cancer; NCI one dose; read-out: Cell growth inhibition %
Outline: (§1)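 Compounds were tested at a single 10 µM concentration within a 60-cell-line panel covering nine tumour subpanels. Growth was read colorimetrically by sulforhodamine B staining.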

[2] = system: A549/ATCC; conditions: Homo sapiens; A549/ATCC, Non-Small Cell Lung Cancer; NCI one dose; read-out: Cell growth inhibition %
Outline: as §1

[3] = system: ACHN; conditions: Homo sapiens; ACHN, Renal cancer; NCI one dose; read-out: Cell growth inhibition %
Outline: as §1

[4] = system: CAKI-1; conditions: Homo sapiens; CAKI-1, Renal cancer; NCI one dose; read-out: Cell growth inhibition %
Outline: as §1

[5] = system: CCRF-CEM; conditions: Homo sapiens; CCRF-CEM, Leukemia; NCI one dose; read-out: Cell growth inhibition %
Outline: as §1

[6] = system: COLO 205; conditions: Homo sapiens; COLO 205, Colon cancer; NCI one dose; read-out: Cell growth inhibition %
Outline: as §1

[7] = system: DU-145; conditions: Homo sapiens; DU-145, Prostate Cancer; NCI one dose; read-out: Cell growth inhibition %
Outline: as §1

[8] = system: EKVX; conditions: Homo sapiens; EKVX, Non-Small Cell Lung Cancer; NCI one dose; read-out: Cell growth inhibition %
Outline: as §1

[9] = system: HCC-2998; conditions: Homo sapiens; HCC-2998, Colon cancer; NCI one dose; read-out: Cell growth inhibition %
Outline: as §1

[10] = system: HS 578T; conditions: Homo sapiens; HS 578T, Breast cancer; NCI one dose; read-out: Cell growth inhibition %
Outline: as §1

[11] = system: IGROV1; conditions: Homo sapiens, IGROV-1; IGROV1, Ovarian Cancer; NCI one dose; read-out: Cell growth inhibition %
Outline: as §1

[12] = system: KM12; conditions: Homo sapiens; KM12, Colon cancer; NCI one dose; read-out: Cell growth inhibition %
Outline: as §1

[13] = system: LOX IMVI; conditions: Homo sapiens; for activity at 10 µM: LOX IMVI (Melanoma), 10 µM one dose, read-out: Growth Percent; for inhibition at 10 µM: Melanoma, NCI one dose, read-out: Cell growth inhibition %
Outline: as §1

[14] = system: MALME-3M; conditions: Homo sapiens; MALME-3M, Melanoma; NCI one dose; read-out: Cell growth inhibition %
Outline: as §1

[15] = system: MCF7; conditions: Homo sapiens; MCF7, Breast cancer; NCI one dose; read-out: Cell growth inhibition %
Outline: as §1

[16] = system: MDA-MB-468; conditions: Homo sapiens; MDA-MB-468, Breast cancer; NCI one dose; read-out: Cell growth inhibition %
Outline: as §1

[17] = system: NCI-H226; conditions: Homo sapiens; NCI-H226, Non-Small Cell Lung Cancer; NCI one dose; read-out: Cell growth inhibition %
Outline: as §1

[18] = system: NCI-H23; conditions: Homo sapiens; NCI-H23, Non-Small Cell Lung Cancer; NCI one dose; read-out: Cell growth inhibition %
Outline: as §1

[19] = system: NCI-H522; conditions: Homo sapiens; NCI-H522, Non-Small Cell Lung Cancer; NCI one dose; read-out: Cell growth inhibition %
Outline: as §1

[20] = system: OVCAR-3; conditions: Homo sapiens; OVCAR-3, Ovarian Cancer; NCI one dose; read-out: Cell growth inhibition %
Outline: as §1

[21] = system: PC-3; conditions: Homo sapiens; PC-3, Prostate Cancer; NCI one dose; read-out: Cell growth inhibition %
Outline: as §1

[22] = system: RPMI-8226; conditions: Homo sapiens; RPMI-8226, Leukemia; NCI one dose; read-out: Cell growth inhibition %
Outline: as §1

[23] = system: SF-268; conditions: Homo sapiens; SF-268, CNS Cancer; NCI one dose; read-out: Cell growth inhibition %
Outline: as §1

[24] = system: SF-295; conditions: Homo sapiens; SF-295, CNS Cancer; NCI one dose; read-out: Cell growth inhibition %
Outline: as §1

[25] = system: SK-MEL-28; conditions: Homo sapiens; SK-MEL-28, Melanoma; NCI one dose; read-out: Cell growth inhibition %
Outline: as §1

[26] = system: SK-MEL-5; conditions: Homo sapiens; SK-MEL-5, Melanoma; NCI one dose; read-out: Cell growth inhibition %
Outline: as §1

[27] = system: SK-OV-3; conditions: Homo sapiens; SK-OV-3, Ovarian Cancer; NCI one dose; read-out: Cell growth inhibition %
Outline: as §1

[28] = system: SN12C; conditions: Homo sapiens, SN 12C, Renal cancer, NCI one dose, read-out: Cell growth inhibition %
Outline: as §1

[29] = system: SNB-75; conditions: Homo sapiens; SNB-75, CNS Cancer; NCI one dose; read-out: Cell growth inhibition %
Outline: as §1

[30] = system: UACC-257; conditions: Homo sapiens; UACC-257, Melanoma; NCI one dose; read-out: Cell growth inhibition %
Outline: as §1

[31] = system: UACC-62; conditions: Homo sapiens; UACC-62, Melanoma; NCI one dose; read-out: Cell growth inhibition %
Outline: as §1

SMILES | inhibition at 10 µM [1] [%] | inhibition at 10 µM [2] [%] | inhibition at 10 µM [3] [%] | inhibition at 10 µM [4] [%] | inhibition at 10 µM [5] [%] | inhibition at 10 µM [6] [%] | inhibition at 10 µM [7] [%] | inhibition at 10 µM [8] [%] | inhibition at 10 µM [9] [%] | inhibition at 10 µM [10] [%] | inhibition at 10 µM [11] [%] | inhibition at 10 µM [12] [%] | inhibition at 10 µM [13] [%] | inhibition at 10 µM [14] [%] | inhibition at 10 µM [15] [%] | inhibition at 10 µM [16] [%] | inhibition at 10 µM [17] [%] | inhibition at 10 µM [18] [%] | inhibition at 10 µM [19] [%] | inhibition at 10 µM [20] [%] | further results
COc1ccc(-c2nc3cc(-c4nnc(SCC(=O)Nc5ccc(C(=O)/C=C/c6ccc(Cl)cc6)cc5)o4)ccc3[nH]2)cc1 [Compound 7l, 2-{5-[2-(4-Methoxyphenyl)-1 H-benzo[d]imidazol-5-yl]-1,3,4-oxadiazol-2-ylthio}-N-{4-[(E)-3-(4-chlorophenyl)acryloyl]phenyl}acetamide] | 0.91 | 0 | 2.31 | 2.8 | 3.98 | 0 | 0 | 0.26 | 0 | 9.4 | 12.8 | 0 | 130 | 3.9 | 22 | 1.89 | 5.85 | 5.55 | 4.71 | 0 | activity at 10 µM [13]: -29.9%; inhibition at 10 µM [21]: 5.06%; inhibition at 10 µM [22]: 20.1%; inhibition at 10 µM [23]: 5.15%; inhibition at 10 µM [24]: 4.12%; inhibition at 10 µM [25]: 0%; inhibition at 10 µM [26]: 1.12%; inhibition at 10 µM [27]: 0%; inhibition at 10 µM [28]: 11.7%; inhibition at 10 µM [29]: 5.35%; inhibition at 10 µM [30]: 0%; inhibition at 10 µM [31]: 6.01%
COc1ccc(/C=C/C(=O)c2ccc(NC(=O)CSc3nnc(-c4ccc5[nH]c(-c6ccc(OC)cc6)nc5c4)o3)cc2)cc1 [Compound 7m, 2-{5-[2-(4-Methoxyphenyl)-1 H-benzo[d]imidazol-5-yl]-1,3,4-oxadiazol-2-ylthio}-N-{4-[(E)-3-(4-methoxyphenyl)acryloyl]phenyl}acetamide] | 0 | 0 | 0 | 6.15 | 38.5 | 0 | 0 | 9.73 | 0 | 21.1 | 3.99 | 3.51 | 81.5 | 17.8 | 17.2 | 0 | 16 | 9.57 | 22.8 | 3.65 | inhibition at 10 µM [21]: 14.7%; inhibition at 10 µM [22]: 44.1%; inhibition at 10 µM [23]: 5.02%; inhibition at 10 µM [24]: 2.1%; inhibition at 10 µM [25]: 2%; inhibition at 10 µM [26]: 22.2%; inhibition at 10 µM [27]: 0%; inhibition at 10 µM [28]: 23.1%; inhibition at 10 µM [29]: 0%; inhibition at 10 µM [30]: 0%; inhibition at 10 µM [31]: 14.9%
COc1ccc(-c2nc3cc(-c4nnc(SCC(=O)Nc5ccc(C(=O)/C=C/c6ccc(OC)c(OC)c6)cc5)o4)ccc3[nH]2)cc1 [Compound 7n, 2-{5-[2-(4-Methoxyphenyl)-1 H-benzo[d]imidazol-5-yl]-1,3,4-oxadiazol-2-ylthio}-N-{4-[(E)-3-(3,4-dimethoxyphenyl)acryloyl]phenyl}acetamide] | 8.7 | 3.19 | 10.7 | 1.11 | 38.8 | 0 | 13.4 | 4.36 | 0 | 7.35 | 12.3 | 23.4 | 56.1 | 14.6 | 55.5 | 10.7 | 3.76 | 19.9 | 24.6 | 14.3 | activity at 10 µM [13]: 44%; inhibition at 10 µM [21]: 2.83%; inhibition at 10 µM [22]: 32.3%; inhibition at 10 µM [23]: 0.44%; inhibition at 10 µM [24]: 0%; inhibition at 10 µM [25]: 3.97%; inhibition at 10 µM [26]: 16.2%; inhibition at 10 µM [27]: 0%; inhibition at 10 µM [28]: 8.67%; inhibition at 10 µM [29]: 22.1%; inhibition at 10 µM [30]: 1.66%; inhibition at 10 µM [31]: 15.8%
COc1ccc(-c2nc3cc(-c4nnc(SCC(=O)Nc5ccc(C(=O)/C=C/c6cc(OC)c(OC)c(OC)c6)cc5)o4)ccc3[nH]2)cc1 [Compound 7o, 2-{5-[2-(4-Methoxyphenyl)-1 H-benzo[d]imidazol-5-yl]-1,3,4-oxadiazol-2-ylthio}-N-{4-[(E)-3-(3,4,5-trimethoxyphenyl)acryloyl]phenyl}acetamide] | 0 | 0 | 0 | 1.83 | 0 | 0 | 0 | 0 | 0 | 0 | 0 | 0 | 22.9 | 3.93 | 18.4 | 0 | 2.19 | 0 | 0 | 0 | inhibition at 10 µM [21]: 0%; inhibition at 10 µM [22]: 23.2%; inhibition at 10 µM [23]: 0%; inhibition at 10 µM [24]: 0%; inhibition at 10 µM [25]: 0%; inhibition at 10 µM [26]: 0.99%; inhibition at 10 µM [27]: 0%; inhibition at 10 µM [28]: 0%; inhibition at 10 µM [29]: 1.75%; inhibition at 10 µM [30]: 0%; inhibition at 10 µM [31]: 5.12%

Source: publication PMC10504751, “Chalcone/1,3,4-Oxadiazole/Benzimidazole hybrids as novel anti-proliferative agents inducing apoptosis and inhibiting EGFR & BRAFV^600E” (BMC Chemistry, 2023)
